Results on 13 molecules are retold here after patent US9416144B2, “Benzoxazine oxazolidinone compound, preparation method and application thereof” (priority 2012, dated 2016).

Common to all, as to assay: In vitro antibacterial activity, MIC by agar double dilution method
What all share (format): cell-based

Test [1] deals with Staphylococcus aureus resistant strains (6 strains). The following applies: clinical isolates. An excerpt:
(§1) Experimental method: The agar double dilution method (Antimicrob. Agents and Chemother, 40, 1996, 720-726) was used to determine the minimum inhibitory concentration (MIC) of the series of compounds of the invention and the positive control drug linezolid for the test strains. The multipoint inoculation system (Denley A400) was employed to inoculate the bacteria on the agar plate surface with different concentrations of drugs; inoculation amount on each point was about 10^6 CFU/mL. The plates were incubated at 35° C. for 16 hrs before the results were observed. The lowest drug concentration contained in the Petri dish without bacterial growth was used as the minimum inhibitory concentration (MIC value) of the drug fir that strain.
(§2) Test strains: All the test strains were clinically isolated pathogens which were collected from the Nanjing region, and they were re-identified by routine methods before use. 31 strains of the clinically isolated pathogens were chosen, including 6 strains of Enterococcus, 5 Staphylococcus aureus sensitive strains; 5 Staphylococcus epidermidis sensitive strains; 6 Staphylococcus aureus resistant strains; 5 Staphylococcus epidermidis resistant strains; and 4 Streptococcus pneumoniae resistant strains.
(§3) Compounds to be tested were first added 2 ml of DMSO to help them fully dissolved, then added sterile double distilled water to the desired concentration; to all the Petri dish with added drug liquid were added 20 mL MIT medium which was heat-melted to be liquid-like, to make the final drug concentration in the Petri dish to be 64, 32, 16, 8, 4, 2, 1, 0.5, 0.25, 0.125, 0.0625, and 0.031 μg/mL.
(§4) The positive control group was LZ (linezolid, brand name Zyvox, approved by the FDA in 2000 to be firstly sold in the United States, which is the first and also the only one of oxazolidinone antibacterial drugs allowed to enter clinical application).

The test system of test [2] is Staphylococcus aureus sensitive strains (5 strains). Conditions: clinical isolates.
Source text: as §1, §2, §3, §4

The test system of test [3] is Staphylococcus epidermidis resistant strains (5 strains). The following applies: clinical isolates.
Source text: as §1, §2, §3, §4

A further test concerns Enterococcus (6 strains). Conditions: clinical isolates, 35° C. 16 hrs.
Source text: as §1, §2, §3, §4

Test [4] has as its system Staphylococcus epidermidis sensitive strains (5 strains). The following applies: clinical isolates.
Source text: as §1, §2, §3, §4

Test [5] has as its system Streptococcus pneumoniae resistant strains (4 strains). Conditions: clinical isolates.
Source text: as §1, §2, §3, §4

Each structure is given as a SMILES string. Converted amounts (≈) assume the structure as drawn.

As for `O=C1O[C@@H](CO)[C@@H]2COc3cc(-c4ccc(C(O)C5CC5)nc4)ccc3N12` (stereo partly drawn) [Compound 6, (3R,3aS)-7-(6-(cyclopropyl(hydroxyl)methyl)pyridin-3-yl)-3-(hydroxyl-methyl)-3a,4-dihydrobenzo[b]oxazolo[3,4-d][1,4]oxazin-1(3H)-one], the minimum inhibitory concentration (MIC) was 1 to 2 mg/L (≈ 2.71 to 5.43 µM) in test [1]; 1 mg/L (≈ 2.71 µM) in test [2]; 1 mg/L (≈ 2.71 µM) in test [3]; 2 mg/L (≈ 5.43 µM) in the test on Enterococcus (6 strains); 0.5 to 1 mg/L (≈ 1.36 to 2.71 µM) in test [4]; 1 to 2 mg/L (≈ 2.71 to 5.43 µM) in test [5].

As for `CC(C)(O)c1ccc(-c2ccc3c(c2)OC[C@H]2[C@H](CO)OC(=O)N32)cn1` [Compound 7, (3R,3aS)-3-(hydroxylmethyl)-7-(6-(2-hydroxylpropyl-2-yl)pyridin-3-yl)-3a,4-dihydrobenzo[b]oxazolo[3,4-d][1,4]oxazin-1(3H)-one], the MIC in test [1] was 1 to 4 mg/L (≈ 2.81 to 11.2 µM); in test [2], 1 to 4 mg/L (≈ 2.81 to 11.2 µM); in test [3], 2 mg/L (≈ 5.61 µM); against Enterococcus (6 strains) it was 4 mg/L (≈ 11.2 µM); in test [4], 1 to 4 mg/L (≈ 2.81 to 11.2 µM); in test [5], 2 to 4 mg/L (≈ 5.61 to 11.2 µM).

For the molecule `CC(O)c1ccc(-c2ccc3c(c2)OC[C@H]2[C@H](CO)OC(=O)N32)cn1` (stereo partly drawn) [Compound 8, (3R,3aS)-7-(6-(1-hydroxylethyl)pyridin-3-yl)-3-(hydroxylmethyl)-3a,4-dihydrobenzo[b]oxazolo[3,4-d][1,4]oxazin-1(3H)-one], the MIC in test [1] was 1 to 2 mg/L (≈ 2.92 to 5.84 µM); in test [2], 1 to 2 mg/L (≈ 2.92 to 5.84 µM); in test [3] it was 1 to 2 mg/L (≈ 2.92 to 5.84 µM); with Enterococcus (6 strains) it was 2 to 4 mg/L (≈ 5.84 to 11.7 µM); in test [4], 1 mg/L (≈ 2.92 µM); in test [5], 2 to 4 mg/L (≈ 5.84 to 11.7 µM).

With `O=C1O[C@@H](CO)[C@@H]2COc3cc(-c4ccc(CO)nc4)ccc3N12` [Compound 9, (3R,3aS)-3-(hydroxylmethyl)-7-(6-(hydroxylmethyl)pyridin-3-yl)-3a,4-dihydrobenzo[b]oxazolo[3,4-d][1,4]oxazin-1(3H)-one], the minimum inhibitory concentration (MIC) in test [1] was 1 to 2 mg/L (≈ 3.05 to 6.09 µM); in test [2] it was 1 to 2 mg/L (≈ 3.05 to 6.09 µM); in test [3], 0.5 to 1 mg/L (≈ 1.52 to 3.05 µM); in the test with Enterococcus (6 strains), 4 mg/L (≈ 12.2 µM); in test [4], 0.5 mg/L (≈ 1.52 µM); in test [5], 2 to 4 mg/L (≈ 6.09 to 12.2 µM).

`O=C1O[C@@H](CO)[C@@H]2COc3cc(-c4ccc(C5(O)CCCC5)nc4)ccc3N12` [Compound 10, (3R,3aS)-7-(6-(1-hydroxylcyclopentyl)pyridin-3-yl)-3-(hydroxylmethyl)-3a,4-dihydrobenzo[b]oxazolo[3,4-d][1,4]oxazin-1(3H)-one]: the minimal inhibitory concentration (MIC) in test [1] is 1 to 2 mg/L (≈ 2.61 to 5.23 µM); in test [2], 2 mg/L (≈ 5.23 µM); in test [3], 1 to 2 mg/L (≈ 2.61 to 5.23 µM); in the test with Enterococcus (6 strains) it was 2 to 4 mg/L (≈ 5.23 to 10.5 µM); in test [4], 1 to 2 mg/L (≈ 2.61 to 5.23 µM); in test [5], 2 mg/L (≈ 5.23 µM).

As to `CN1CCN(c2ccc(-c3ccc4c(c3)OC[C@H]3[C@H](CO)OC(=O)N43)cn2)CC1` [Compound 12, (3R,3aS)-3-(hydroxylmethyl)7-(6-(4-methylpiperazin-1-yl)pyridin-3-yl)-3a,4-dihydrobenzo[b]oxazolo[3,4-d][1,4]oxazin-1(3H)-one], the MIC in test [1] is 4 to 8 mg/L (≈ 10.1 to 20.2 µM); in test [2] it was 2 to 4 mg/L (≈ 5.04 to 10.1 µM); in test [3], 4 mg/L (≈ 10.1 µM); with Enterococcus (6 strains) it was 2 to 4 mg/L (≈ 5.04 to 10.1 µM); in test [4] it was 2 to 4 mg/L (≈ 5.04 to 10.1 µM); in test [5], 4 mg/L (≈ 10.1 µM).

With `CC(C)N1CC(c2ccc(-c3ccc4c(c3)OC[C@H]3[C@H](CO)OC(=O)N43)cn2)OC1=O` (stereo partly drawn) [Compound 15, (3R,3aS)-3-(hydroxylmethyl)-7-(6-(3-isopropyl-2-oxazolidin-5-yl)pyridin-3-yl)-3a,4-dihydrobenzo[b]oxazolo[3,4-d][1,4]oxazin-1(3H)-one], the MIC was 1 to 2 mg/L (≈ 2.35 to 4.7 µM) in test [1]; 1 to 2 mg/L (≈ 2.35 to 4.7 µM) in test [2]; 2 to 4 mg/L (≈ 4.7 to 9.4 µM) in test [3]; 1 to 2 mg/L (≈ 2.35 to 4.7 µM) in the test on Enterococcus (6 strains); 1 to 2 mg/L (≈ 2.35 to 4.7 µM) in test [4]; 2 mg/L (≈ 4.7 µM) in test [5].

In the case of `O=C1OC(c2ccc(-c3ccc4c(c3)OC[C@H]3[C@H](CO)OC(=O)N43)cn2)CN1Cc1ccccc1` (stereo partly drawn) [Compound 16, (3R,3aS)-7-(6-(3-benzyl-2-oxazolidin-5-yl)pyridin-3-yl)-3-(hydroxylmethyl)-3a,4-dihydrobenzo[b]oxazolo[3,4-d][1,4]oxazin-1(3H)-one], the minimal inhibitory concentration (MIC) in test [1] was 1 to 2 mg/L (≈ 2.11 to 4.22 µM); in test [2] it was 1 to 2 mg/L (≈ 2.11 to 4.22 µM); in test [3], 2 to 4 mg/L (≈ 4.22 to 8.45 µM); with Enterococcus (6 strains), 1 to 2 mg/L (≈ 2.11 to 4.22 µM); in test [4], 1 to 2 mg/L (≈ 2.11 to 4.22 µM); in test [5], 2 mg/L (≈ 4.22 µM).

For the molecule `Cn1nnc(-c2ccc(-c3ccc4c(c3)OC[C@H]3[C@H](CO)OC(=O)N43)cn2)n1` [Compound 17, (3R,3aS)-3-(hydroxylmethyl)-7-(6-(2-methyl-2H-tetrazol-5-yl)pyridin-3-yl)-3a,4-dihydrobenzo[b]oxazolo[3,4-d][1,4]oxazin-1(3H)-one], the minimum inhibitory concentration (MIC) in test [1] was 1 to 2 mg/L (≈ 2.63 to 5.26 µM); in test [2], 1 to 4 mg/L (≈ 2.63 to 10.5 µM); in test [3] it was 1 to 2 mg/L (≈ 2.63 to 5.26 µM); in the test on Enterococcus (6 strains) it was 4 mg/L (≈ 10.5 µM); in test [4], 1 to 2 mg/L (≈ 2.63 to 5.26 µM); in test [5], 1 to 2 mg/L (≈ 2.63 to 5.26 µM).

On to `O=C1COCCN1c1ccc(-c2ccc3c(c2)OC[C@H]2[C@H](CO)OC(=O)N32)cn1` [Compound 19, (3R,3aS)-3-(hydroxylmethyl)-7-(6-(3-oxomorpholin)pyridin-3-yl)-3a,4-dihydrobenzo[b]oxazolo[3,4-d][1,4]oxazin-1(3H)-one], for which the minimal inhibitory concentration (MIC) was 2 to 4 mg/L (≈ 5.03 to 10.1 µM) in test [1]; 2 to 4 mg/L (≈ 5.03 to 10.1 µM) in test [2]; 2 to 4 mg/L (≈ 5.03 to 10.1 µM) in test [3]; 2 to 4 mg/L (≈ 5.03 to 10.1 µM) in the test with Enterococcus (6 strains); 1 to 2 mg/L (≈ 2.52 to 5.03 µM) in test [4]; 2 to 4 mg/L (≈ 5.03 to 10.1 µM) in test [5].

Turning to `CN1CCN(c2ccc(-c3ccc4c(c3)OC[C@H]3[C@H](CO)OC(=O)N43)cn2)C(=O)C1` [Compound 20, (3R,3aS)-3-(hydroxylmethyl)-7-(6-(4-methyl-2-oxopiperazin-1-yl)pyridin-3-yl)-3a,4-dihydrobenzo[b]oxazolo[3,4-d][1,4]oxazin-1(3H)-one], the MIC in test [1] lay in the range of 2 to 4 mg/L (≈ 4.87 to 9.75 µM); in test [2] it was 2 to 4 mg/L (≈ 4.87 to 9.75 µM); in test [3], 2 to 4 mg/L (≈ 4.87 to 9.75 µM); with Enterococcus (6 strains), 16 to 32 mg/L (≈ 39 to 78 µM); in test [4], 2 to 4 mg/L (≈ 4.87 to 9.75 µM); in test [5], 4 to 8 mg/L (≈ 9.75 to 19.5 µM).

On to `O=C1OC(CO)CN1c1ccc(-c2ccc3c(c2)OC[C@H]2[C@H](CO)OC(=O)N32)cn1` (stereo partly drawn) [Compound 24, (3R,3aS)-3-(hydroxylmethyl)-7-(6-(5-(hydroxylmethyl)-2-oxooxazolidin-3-yl)pyridin-3-yl)-3a,4-dihydrobenzo[b]oxazolo[3,4-d][1,4]oxazin-1(3H)-one], for which the minimum inhibitory concentration (MIC) was 0.5 to 1 mg/L (≈ 1.21 to 2.42 µM) in test [1]; 0.5 to 1 mg/L (≈ 1.21 to 2.42 µM) in test [2]; 0.5 to 1 mg/L (≈ 1.21 to 2.42 µM) in test [3]; 0.5 to 1 mg/L (≈ 1.21 to 2.42 µM) in the test on Enterococcus (6 strains); 0.25 to 0.5 mg/L (≈ 0.605 to 1.21 µM) in test [4]; 1 mg/L (≈ 2.42 µM) in test [5].

Take `O=C1O[C@H](CO)CN1c1ccc(-c2ccc3c(c2)OC[C@H]2[C@H](CO)OC(=O)N32)cn1` [Compound 25, (3R,3S)-3-(hydroxylmethyl)-7-(6-((S)-5-(hydroxylmethyl)-2-oxooxazolidin-3-yl)pyridin-3-yl)-3a,4-dihydrobenzo[b]oxazolo[3,4-d][1,4]oxazin-1(3H)-one]: the minimal inhibitory concentration (MIC) is 0.5 to 1 mg/L (≈ 1.21 to 2.42 µM) in test [1]; 0.5 to 1 mg/L (≈ 1.21 to 2.42 µM) in test [2]; 0.5 to 1 mg/L (≈ 1.21 to 2.42 µM) in test [3]; 0.5 to 1 mg/L (≈ 1.21 to 2.42 µM) against Enterococcus (6 strains); 0.5 to 1 mg/L (≈ 1.21 to 2.42 µM) in test [4]; 1 mg/L (≈ 2.42 µM) in test [5].
